16 compounds from patent US4299767A, “Benzodiazepine derivatives” (Hoffmann-La Roche Inc., priority 1978, dated 1981) can be followed below.

The structures appear in SMILES notation. Read-outs that look alike come from different tables or passages of the source. Where only a bound is given, the exact number is not on record here.

As usually defined, the LD50 is the dose at which mortality reaches 50%. Read a low LD50 as greater toxicity.

One data set deals with aldosterone. The data set is described as follows: aldosterone-antagonistic properties in adrenalectomised rats (urine volume, sodium and potassium excretion). Type of data set: in vivo, adrenalectomised female Holtzmann rats. As to conditions: for response vs control in vivo at 1 mg/kg / response vs control in vivo at 10 mg/kg / response vs control in vivo at 3 mg/kg / response vs control in vivo at 0.1 mg/kg: Rattus norvegicus, po. How it is done: If benzodiazepine derivatives of formula I are administered to the animals before the treatment with aldosterone, then there is observed, in comparison with the animals which are treated only with aldosterone (control animals), a pronounced increase of the sodium excretion (i.e. the sodium retention caused by aldosterone is antagonised), whereas the potassium excretion and the urine volume are influenced to a lesser extent.
The standard experiment is carried out as follows:
Female Holtzmann rates (150-180 g) are bilaterally adrenalectomised 70 to 74 hours before the beginning of the experiment. After the operation, the animals receive a customary rat dry feed and 0.9% sodium chloride solution for drinking. 16-17 hours before the beginning of the experiment the feed is removed from the animals, but they can still drink, as before, 0.9% sodium chloride solution ad libitum. At the beginning of the experiment the substance to be tested as an aldosterone-antagonist is administered to the animals by means of a stomach probe. 30 minutes later the animals receive a subcutaneous injection of […] of aldosterone. After a further 90 minutes, the urinary bladders of the animals are emptied by careful suprapublic pressure, whereupon the animals are placed individually in metabolic cages without food and without drink. The urine of the animals is then collected for 3hours, whereupon their urinary bladders are once more emptied. The spontaneously excreted urine and the remaining urine obtained at the conclusion of the experiment by pressing-out the urinary bladders are collected in graduated centrifuge glasses. Sodium and potassium concentrations in the urine are determined with a flame photometer.
(§1) The following Table contains results obtained in the previously described experiment with representative benzodiazepine derivatives of formula I. In this Table there are given for each benzodiazepine derivative in question the dosage administered (in mg/kg p.o.) as well as the percentage variation in the urine volume, the sodium excretion and the potassium excretion in comparison with the control animals (i.e. in comparison with the animals treated only with aldosterone). Moreover, the Table contains data relating to the acute toxicity of the benzodiazepine derivatives investigated (LD 50 in mg/kg in the case of a single oral administration to mice).

Data set [1] in a line: acute toxicity, single oral administration to mice. Conditions: mouse, in vivo, p.o.
Source text: as §1

The mark [2] stands for this setting: read-out: potassium excretion [K+], in %, based on control animals.
The mark [3] stands for this setting: read-out: sodium excretion [Na+], in %, based on control animals.
[4] abbreviates: read-out: urine volume, in %, based on control animals.
Setting [5] is: aldosterone alone, in comparison with untreated animals.

`CC(CO)NC(=O)Nc1ccc2c(c1)C(c1ccccc1F)=NCC(=O)N2C` (racemic) [Example 8, rac-1-[5-(o-fluorophenyl)-2,3-dihydro-1-methyl-2-oxo-1H-1,4-benzodiazepin-7-yl]-3-(2-hydroxy-1-methylethyl)urea]: the figures for the response vs control in vivo at 1 mg/kg with aldosterone (setting [2]), in the data set with aldosterone (setting [3]) and with aldosterone (setting [4]) were 80%, 127% and 73%, respectively. In addition, the results for the response vs control in vivo at 10 mg/kg in the data set on aldosterone (setting [2]), in the data set with aldosterone (setting [3]) and in the data set on aldosterone (setting [4]) were 129%, 452% and 200%, respectively. In addition, the LD50 in data set [1] is over 5000 mg/kg.
Regarding `CNC(=O)Nc1ccc2c(c1)C(c1ccccc1F)=NCC(=O)N2C` [Example 1, 1-[5-(o-Fluorophenyl)-2,3-dihydro-1-methyl-2-oxo-1H-1,4-benzodiazepin-7-yl]-3-methylurea], the figures for the response vs control in vivo at 3 mg/kg with aldosterone (setting [2]), in the data set on aldosterone (setting [3]) and in the data set with aldosterone (setting [4]) were 84%, 182% and 95%, respectively. Further, the LD50 in data set [1] was over 5000 mg/kg.
Take `CN1C(=O)CN=C(c2ccccc2F)c2cc(NC(=O)NC(C)(C)C)ccc21` [Example 2, 1-tert.butyl-3-[5-(o-fluorophenyl)-2,3-dihydro-1-methyl-2-oxo-1H-1,4-benzodiazepin-7-yl]urea]: the response vs control in vivo at 1 mg/kg in the data set on aldosterone (setting [2]) turned out to be 132%; with aldosterone (setting [3]), 236%; in the data set on aldosterone (setting [4]), 194%. The response vs control in vivo at 10 mg/kg with aldosterone (setting [2]) came out at 70%; in the data set with aldosterone (setting [3]), 234%; with aldosterone (setting [4]) it was 105%. Besides, the LD50 in data set [1] is 600 to 1200 mg/kg.
As to `CN1C(=O)CN=C(c2ccccc2F)c2cc(NC(=O)NCc3ccccc3)ccc21` [Example 3, 1-benzyl-3-[5-(o-fluorophenyl)-2,3-dihydro-1-methyl-2-oxo-1H-1,4-benzodiazepin-7-yl]urea], the figures for the response vs control in vivo at 1 mg/kg in the data set with aldosterone (setting [2]), in the data set on aldosterone (setting [3]) and with aldosterone (setting [4]) were 153%, 255% and 139%, respectively. The compound further came in with an LD50 in data set [1] of over 5000 mg/kg.
As for `CCN(C)C(=O)Nc1ccc2c(c1)C(c1ccccc1F)=NCC(=O)N2C` [Example 4, 1-ethyl-3-[5-(o-fluorophenyl)-2,3-dihydro-1-methyl-2-oxo-1H-1,4-benzodiazepin-7-yl]-1-methylurea], the figures for the response vs control in vivo at 1 mg/kg with aldosterone (setting [2]), in the data set on aldosterone (setting [3]) and with aldosterone (setting [4]) were 97%, 291% and 100%, respectively. This compound yielded an LD50 in data set [1] of over 5000 mg/kg.
Turning to `CN1C(=O)CN=C(c2ccccc2F)c2cc(NC(=O)N3CC3)ccc21` [Example 5, N-[5-(o-fluorophenyl)-2,3-dihydro-1-methyl-2-oxo-1H-1,4-benzodiazepin-7-yl]-1-aziridinecarboxamide], the response vs control in vivo at 1 mg/kg is 146% with aldosterone (setting [2]), 294% in the data set with aldosterone (setting [3]) and 192% in the data set with aldosterone (setting [4]). For the same compound, the response vs control in vivo at 10 mg/kg with aldosterone (setting [2]) turned out to be 108%; with aldosterone (setting [3]), 237%; in the data set on aldosterone (setting [4]), 129%. Also, the LD50 in data set [1] is over 5000 mg/kg.
For the compound `CN1C(=O)CN=C(c2ccccc2F)c2cc(NC(=O)N3CCCC3)ccc21` [Example 6, N-[5-(o-fluorophenyl)-2,3-dihydro-1-methyl-2-oxo-1H-1,4-benzodiazepin-7-yl]-1-pyrrolidinecarboxamide], the response vs control in vivo at 1 mg/kg in the data set with aldosterone (setting [2]) turned out to be 112%; with aldosterone (setting [3]) it was 308%; in the data set on aldosterone (setting [4]), 184%. The compound also gave an LD50 in data set [1] of over 5000 mg/kg.
For `CN1C(=O)CN=C(c2ccccc2F)c2cc(NC(=O)NCCO)ccc21` [Example 7, 1-[5-(o-fluorophenyl)-2,3-dihydro-1-methyl-2-oxo-1H-1,4-benzodiazepin-7-yl]-3-(2-hydroxyethyl)urea], the response vs control in vivo at 0.1 mg/kg in the data set with aldosterone (setting [2]) stood at 121%; in the data set on aldosterone (setting [3]) it was 247%; in the data set with aldosterone (setting [4]) it was 85%. Besides, the LD50 in data set [1] was over 5000 mg/kg.
Consider `CNC(=O)Nc1ccc2c(c1Cl)C(c1ccccc1F)=NCC(=O)N2C` [Example 9, 1-[6-chloro-5-(o-fluorophenyl)-2,3-dihydro-1-methyl-2-oxo-1H-1,4-benzodiazepin-7-yl]-3-methylurea], for which the response vs control in vivo at 1 mg/kg in the data set with aldosterone (setting [2]) stood at 91%; with aldosterone (setting [3]), 330%; in the data set on aldosterone (setting [4]) it was 178%. This compound came in with an LD50 in data set [1] of 1250 to 2500 mg/kg.
For `CCCCNC(=O)Nc1ccc2c(c1Cl)C(c1ccccc1F)=NCC(=O)N2C` [Example 10, 1-butyl-3-[6-chloro-5-(o-fluorophenyl)-2,3-dihydro-1-methyl-2-oxo-1H-1,4-benzodiazepin-7-yl]urea], the response vs control in vivo at 1 mg/kg in the data set on aldosterone (setting [2]) came out at 104%; with aldosterone (setting [3]), 380%; with aldosterone (setting [4]), 175%. Moreover, in data set [1], the LD50 was over 5000 mg/kg.
In the case of `CCN(CC)C(=O)Nc1ccc2c(c1Cl)C(c1ccccc1F)=NCC(=O)N2C` [Example 11, 3-[6-chloro-5-(o-fluorophenyl)-2,3-dihydro-1-methyl-2-oxo-1H-1,4-benzodiazepin-7-yl]-1,1-diethylurea], the response vs control in vivo at 10 mg/kg came to 110% in the data set with aldosterone (setting [2]), 236% in the data set with aldosterone (setting [3]) and 124% in the data set on aldosterone (setting [4]). The compound further showed an LD50 in data set [1] of over 5000 mg/kg.
Regarding `CCN(C)C(=O)Nc1ccc2c(c1Cl)C(c1ccccc1F)=NCC(=O)N2C` [Example 12, 3-[6-chloro-5-(o-fluorophenyl)-2,3-dihydro-1-methyl-2-oxo-1H-1,4-benzodiazepin-7-yl]-1-ethyl-1-methylurea], the response vs control in vivo at 1 mg/kg in the data set on aldosterone (setting [2]) is 118%; with aldosterone (setting [3]), 278%; in the data set with aldosterone (setting [4]) it was 136%. This compound displayed an LD50 in data set [1] of 2500 to 5000 mg/kg.
For `CN1C(=O)CN=C(c2ccccc2F)c2c1ccc(NC(=O)NCCO)c2Cl` [Example 13, 1-[6-chloro-5-(o-fluorophenyl)-2,3-dihydro-1-methyl-2-oxo-1H-1,4-benzodiazepin-7-yl]-3-(2-hydroxyethyl)urea], in that order: 110%, 242%, 140% and over 5000 mg/kg.
Take `CN(C)C(=O)Nc1ccc2c(c1)C(c1ccccc1F)=NCC(=O)N2C` [Example 32, 3-[5-(o-fluorophenyl)-2,3-dihydro-1-methyl-2-oxo-1H-1,4-benzodiazepin-7-yl]-1,1-dimethylurea]: the response vs control in vivo at 10 mg/kg with aldosterone (setting [2]) amounted to 91%; with aldosterone (setting [3]) it was 190%; in the data set with aldosterone (setting [4]) it was 102%. This compound also showed an LD50 in data set [1] of over 5000 mg/kg.
For `COc1ccc(NC(=O)Nc2ccc3c(c2)C(c2ccccc2F)=NCC(=O)N3C)cc1` [Example 33, 1-[5-(o-fluorophenyl)-2,3-dihydro-1-methyl-2-oxo-1H-1,4-benzodiazepin-7-yl]-3-(p-methoxyphenyl)urea], in that order: 145%, 240%, 117% and over 5000 mg/kg.
As to `C[C@]12CCC(=O)C=C1CC[C@@H]1[C@@H]2[C@@H](O)C[C@]2(C=O)[C@@H](C(=O)CO)CC[C@@H]12` [aldosterone, reference compound], in the data set with aldosterone (setting [5]), the excreted urine volume entry is reported as “reduction of the excreted urine volume”, the potassium excretion result is given as “increased potassium excretion” and the sodium excretion result is given as “pronounced reduction of the sodium excretion”.
